Results as given in patent US12679878B2, “CRF2 receptor agonists and their use in therapy” (SANOFI, priority 2020, dated 2026).
Starred links: 1 amine or outer side, 2 acyl side, 3 side chain; linkers in the order of their positions; H or OH if unused. Non-standard residues stand in square brackets, D forms with d. Residues, ends and D or L forms follow the SMILES beside them. Groups on a side chain read outwards from the residue. *: point of attachment. C18 diacid = O=C(O)CCCCCCCCCCCCCCCCC(=O)*; γGlu = O=C(O)[C@H](CCC(=O)[*:2])N[*:1]; AEEA = NCCOCCOCC(=O)O; Aib = CC(C)(N)C(=O)O

Experiment: Effect on blood pressure, telemetry (Example 17)
Assay type: in vivo
Settings: Sprague Dawley rats, 0.1 mg/kg SC
Experimental: The effect of the compounds on blood pressure was determined in telemetry studies in Sprague Dawley rats at a dosage of 0.1 mg/kg SC.
The rats were previously implanted with a telemetry device (DSI, Saint-Paul, USA, HD-S10, HD-S11 or HD S21) and allowed to recover for a minimum period of 2 weeks before treatment with vehicle or the different peptides. Blood pressure (BP) was recorded through a catheter inserted into the abdominal aorta. The device body was placed in the abdomen. At the end of surgery, animals were placed in individual cages until the end of the study.
Pressure signals were recorded for one hour before the treatment (basal period). Thereafter, the subcutaneous administration of the test compound or its vehicle was performed, under continuous recording of the signal over a 48-hour period. Data acquisition was performed using Hem 4.3 acquisition software (Notocord®, Le Pecq, France) connected to the telemetry device. Hemodynamic parameters were recorded during a […] before treatment and every 4-hour period following subcutaneous administration over 48 hours.
Investigated parameters (calculated from BP signal) were Heart Rate (HR) in beats per minute (bpm), Diastolic and Systolic Blood Pressure (DBP) in mmHg, and Mean Blood Pressure (MBP) in mmHg.
Data from Hem were manipulated using Microsoft Excel®. For each parameter, a basal value was determined as the average calculated over a 1-hour period during the pre-treatment sequence, and the values post treatment were calculated over 4-hour periods ([0-4], [4-8], [8-12], [12-16], [16-20], [20-24], [24-28], [32-36], [36-40], [40-44] and [44-48] hours) covering the 48-hour period following administration.
Representative data are presented in Table 15 below, in which “n” represents the number of animals for which individual values were obtained and “Duration” indicates the last time point for which a significant effect on BP was still seen: Table 15

SMILES	Duration (h): last time point for which a significant effect on BP was still seen	Effect on Systolic Pressure % change from baseline 8 h	Effect on Systolic Pressure % change from baseline 24 h
CC[C@H](C)[C@H](N)C(=O)N[C@H](C(=O)N[C@@H](CC(C)C)C(=O)N[C@@H](CO)C(=O)N[C@@H](CC(C)C)C(=O)N[C@@H](CC(=O)O)C(=O)N[C@@H](C(=O)N1CCC[C@H]1C(=O)N[C@H](C(=O)N[C@@H](CCCCN)C(=O)N[C@@H](CC(C)C)C(=O)N[C@@H](CCCCNC(=O)COCCOCCNC(=O)COCCOCCNC(=O)CC[C@H](NC(=O)CCCCCCCCCCCCCCCCC(=O)O)C(=O)O)C(=O)N[C@@H](CCC(N)=O)C(=O)N[C@H](C(=O)N[C@@H](CC(C)C)C(=O)N[C@@H](CC(C)C)C(=O)N[C@@H](CCCCN)C(=O)N[C@@H](CCC(N)=O)C(=O)N[C@@H](CCC(=O)O)C(=O)N[C@@H](CCCNC(=N)N)C(=O)N[C@@H](CCC(N)=O)C(=O)N[C@@H](CCCCN)C(=O)NC(C)(C)C(=O)N[C@@H](CCC(N)=O)C(=O)N[C@@H](CCCNC(=N)N)C(=O)N[C@@H](CCC(=O)O)C(=O)N[C@@H](CCC(N)=O)C(=O)N[C@@H](C)C(=O)N[C@@H](CCC(=O)O)C(=O)N[C@@H](CCCCN)C(=O)N[C@@H](CC(N)=O)C(=O)N[C@@H](CCCCN)C(=O)N[C@@H](CCC(N)=O)C(=O)N[C@H](C(=O)N[C@@H](CC(C)C)C(=O)N[C@@H](C)C(=O)N[C@@H](CCC(N)=O)C(=O)N[C@H](C(N)=O)C(C)C)[C@@H](C)CC)[C@@H](C)CC)[C@@H](C)CC)C(C)C)C(C)C [SEQ ID NO: 130, IVLSLDvPIKLK*QILLKQERQKAibQREQAEKNKQILAQV-NH2] (H-IVLSLD[dV]PIKLK([AEEA-AEEA-γGlu-C18 diacid])QILLKQERQK[Aib]QREQAEKNKQILAQV-NH2)	30 h	−15.2%	−9.9%
CC[C@H](C)[C@H](N)C(=O)N[C@H](C(=O)N[C@@H](CC(C)C)C(=O)N[C@@H](CO)C(=O)N[C@@H](CC(C)C)C(=O)N[C@@H](CC(=O)O)C(=O)N[C@@H](C(=O)N1CCC[C@H]1C(=O)N[C@H](C(=O)N[C@@H](CCCCN)C(=O)N[C@@H](CC(C)C)C(=O)N[C@@H](CCCCNC(=O)COCCOCCNC(=O)COCCOCCNC(=O)CC[C@H](NC(=O)CCCCCCCCCCCCCCCCC(=O)O)C(=O)O)C(=O)N[C@@H](CCC(N)=O)C(=O)N[C@H](C(=O)N[C@@H](CC(C)C)C(=O)N[C@@H](CC(C)C)C(=O)N[C@@H](CCCCN)C(=O)N[C@@H](CCC(N)=O)C(=O)N[C@@H](CCC(=O)O)C(=O)N[C@@H](CCCNC(=N)N)C(=O)N[C@@H](CCC(N)=O)C(=O)N[C@@H](CCCCN)C(=O)NC(C)(C)C(=O)N[C@@H](CCC(N)=O)C(=O)N[C@@H](CCCNC(=N)N)C(=O)N[C@@H](CCC(N)=O)C(=O)N[C@@H](CCC(N)=O)C(=O)N[C@@H](C)C(=O)N[C@@H](CCC(=O)O)C(=O)N[C@@H](CCCCN)C(=O)N[C@@H](CC(N)=O)C(=O)N[C@@H](CCCCN)C(=O)N[C@@H](CCC(N)=O)C(=O)N[C@H](C(=O)N[C@@H](CC(C)C)C(=O)N[C@@H](C)C(=O)N[C@@H](CCC(N)=O)C(=O)N[C@H](C(N)=O)C(C)C)[C@@H](C)CC)[C@@H](C)CC)[C@@H](C)CC)C(C)C)C(C)C [SEQ ID NO: 135, IVLSLDvPIKLK*QILLKQERQKAibQRQQAEKNKQILAQV-NH2] (H-IVLSLD[dV]PIKLK([AEEA-AEEA-γGlu-C18 diacid])QILLKQERQK[Aib]QRQQAEKNKQILAQV-NH2)	30 h	−8.8%	−4.8%
CC[C@H](C)[C@H](N)C(=O)N[C@H](C(=O)N[C@@H](CC(C)C)C(=O)N[C@@H](CO)C(=O)N[C@@H](CC(C)C)C(=O)N[C@@H](CC(=O)O)C(=O)N[C@@H](C(=O)N1CCC[C@H]1C(=O)N[C@H](C(=O)N[C@@H](CCCCN)C(=O)N[C@@H](CC(C)C)C(=O)N[C@@H](CCCCNC(=O)COCCOCCNC(=O)COCCOCCNC(=O)CC[C@H](NC(=O)CCCCCCCCCCCCCCCCC(=O)O)C(=O)O)C(=O)N[C@@H](CCC(N)=O)C(=O)N[C@H](C(=O)N[C@@H](CC(C)C)C(=O)N[C@@H](CC(C)C)C(=O)N[C@@H](CCCCN)C(=O)N[C@@H](CCC(N)=O)C(=O)N[C@@H](CCC(=O)O)C(=O)N[C@@H](CCCNC(=N)N)C(=O)N[C@@H](CCC(N)=O)C(=O)N[C@@H](CCCCN)C(=O)N[C@@H](CCCCN)C(=O)N[C@@H](CCC(N)=O)C(=O)N[C@@H](CCCNC(=N)N)C(=O)N[C@@H](CCC(=O)O)C(=O)N[C@@H](CCC(N)=O)C(=O)N[C@@H](C)C(=O)N[C@@H](CCC(=O)O)C(=O)N[C@@H](CCCCN)C(=O)N[C@@H](CC(N)=O)C(=O)N[C@@H](CCCCN)C(=O)N[C@@H](CCC(N)=O)C(=O)N[C@H](C(=O)N[C@@H](CC(C)C)C(=O)N[C@@H](CCC(=O)O)C(=O)N[C@@H](CCC(N)=O)C(=O)N[C@H](C(N)=O)C(C)C)[C@@H](C)CC)[C@@H](C)CC)[C@@H](C)CC)C(C)C)C(C)C [SEQ ID NO: 137] (H-IVLSLD[dV]PIKLK([AEEA-AEEA-γGlu-C18 diacid])QILLKQERQKKQREQAEKNKQILEQV-NH2)	28 h	−15.9%	−6.5%
CC[C@H](C)[C@H](N)C(=O)N[C@H](C(=O)N[C@@H](CC(C)C)C(=O)N[C@@H](CO)C(=O)N[C@@H](CC(C)C)C(=O)N[C@@H](CC(=O)O)C(=O)N[C@@H](C(=O)N1CCC[C@H]1C(=O)N[C@H](C(=O)N[C@@H](CCCCN)C(=O)N[C@@H](CC(C)C)C(=O)N[C@@H](CCCCNC(=O)COCCOCCNC(=O)COCCOCCNC(=O)CC[C@H](NC(=O)CCCCCCCCCCCCCCCCC(=O)O)C(=O)O)C(=O)N[C@@H](CCC(N)=O)C(=O)N[C@H](C(=O)N[C@@H](CC(C)C)C(=O)N[C@@H](CC(C)C)C(=O)N[C@@H](CCCCN)C(=O)N[C@@H](CCC(N)=O)C(=O)N[C@@H](CCC(=O)O)C(=O)N[C@@H](CCCNC(=N)N)C(=O)N[C@@H](CCC(N)=O)C(=O)N[C@@H](CCCCN)C(=O)N[C@@H](CCCCN)C(=O)N[C@@H](CCC(N)=O)C(=O)N[C@@H](CCCNC(=N)N)C(=O)N[C@@H](CCC(=O)O)C(=O)N[C@@H](CCCCN)C(=O)N[C@@H](C)C(=O)N[C@@H](CCC(=O)O)C(=O)N[C@@H](CCCCN)C(=O)N[C@@H](CC(N)=O)C(=O)N[C@@H](CCCCN)C(=O)N[C@@H](CCC(N)=O)C(=O)N[C@H](C(=O)N[C@@H](CC(C)C)C(=O)N[C@@H](C)C(=O)N[C@@H](CCC(N)=O)C(=O)N[C@H](C(N)=O)C(C)C)[C@@H](C)CC)[C@@H](C)CC)[C@@H](C)CC)C(C)C)C(C)C [SEQ ID NO: 138] (H-IVLSLD[dV]PIKLK([AEEA-AEEA-γGlu-C18 diacid])QILLKQERQKKQREKAEKNKQILAQV-NH2)	30 h	−6.1%	−3.6%
